Literature values in US20240207252A1, “AEROSOL-FORMING SUBSTRATE AND AEROSOL-GENERATING SYSTEM” (SHENZHEN FIRST UNION TECHNOLOGY CO., LTD., priority 2021, published 2024).

Conditions: single oral administration

Tmax: less than 1 h
t1/2: less than 1 h
Compound: COC(=O)[C@@H]1[C@H]2C[C@H]3c4[nH]c5ccccc5c4CCN3C[C@@H]2CC[C@@H]1O [yohimbine, methyl 17alpha-hydroxyyohimban-16alpha-carboxylate]
